Measurements reported in publication PMC11434613, “The Remarkable and Selective In Vitro Cytotoxicity of Synthesized Bola-Amphiphilic Nanovesicles on Etoposide-Sensitive and -Resistant Neuroblastoma Cells” (Nanomaterials, 2024).
Where “and” joins values, the source holds several entries; their conditions need not be identical. Identical values can stand only once.

Key:
[1] = MTT cytotoxicity assay on HepG2 cells; assay type: cell-based, human; settings: human
Method: (§1) To assess the cytotoxicity properties of BPPB, the MTT (3-(4,5-dimethylthiazol-2-yl)-2,5-diphenyltetrazolium bromide) cell proliferation assay (Abcam, Prodotti Gianni s.r.l., Milano, Italy, Cat#ab2011091) was performed, following the manufacturer’s protocol, as previously reported. This time, the increasing concentrations of BPPB were in the range of 0.4–85.3 µM. The cell survival rate, expressed as cell viability percentage (%), was evaluated based on the experimental outputs of treated groups vs. the untreated groups (CTR) and was calculated as follows: cell viability (%) = (OD treated cells − OD blank)/(OD untreated cells − OD blank) × 100%.
(§2) In this study, the cytotoxicity profile of BPPB was assessed in both immortalized human liver cells (HepG2) cells, as in our previous works, and in transformed African green monkey kidney fibroblast cells (Cos-7), as reported in a recent paper. Specifically, we evaluated the cytotoxicity of BPPB by carrying out both the MTT proliferation assay and the lactate dehydrogenase (LHD) cytotoxicity assay, which measures the LDH activity as an indicator of cell death. Both cell lines were exposed for 24 h to increasing concentrations of BPPB (0.4–85.3 µM). Growth inhibition/death were determined by the MTT test, while cell cytotoxicity was determined by LDH assay, with respect to untreated control cells. Results are reported as bar graphs in Figure 8 and as dispersion graphs in Figures S13 and S14 in Supplementary Materials (Section S2).

HepG2 cells = assay: MTT cytotoxicity assay on HepG2 cells; assay type: cell-based, human; settings: for IC50: MTT, concentration range 0.4–85.3 µM
Method: as §1, §2

Cos-7 cells [2] = assay: LDH cytotoxicity assay on Cos-7 cells; assay type: cell-based; settings: 24 h
Method: To assess the cytotoxicity properties of BPPB, the lactate dehydrogenase (LDH) cytotoxicity assay (Abcam, Cat#ab102526) was performed, following manufacturer’s protocol, as previously described. This time, the increasing concentrations of BPPB were in the range 0.4–85.3 µM.
as §2

Cos-7 cells [3] = tested on: Cos-7 cells; design: method as in earlier work; settings: MTT test; Table S1, previously assessed characteristics; cited from earlier work
HTLA-ER cells = assay: Cell viability assay (CellTiter 96 AQueous One Solution) on etoposide-resistant HTLA-ER NB cells; assay type: cell-based, human
From the text: HTLA-230 human stage-IV NB cells were kindly provided by Dr. L. Raffaghello (G. Gaslini Institute, Genoa, Italy). The HTLA-ER cells were selected by treating HTLA-230 parental cells for six months with increasing concentrations of etoposide, as previously reported. Both cell populations were maintained in RPMI 1640 medium (Euroclone Spa, Pavia, Italy) supplemented with 10% fetal bovine serum (FBS, Euroclone Spa, Pavia, Italy), 1% L-glutamine (Euroclone Spa, Pavia, Italy), and 1% Penicillin/Streptomicin (Euroclone Spa, Pavia, Italy) and grown in standard conditions (37 °C humidified incubator with 5% CO2).
To determine the cytotoxic effects of BPPB, in vitro time- and dose-dependent experiments were carried out. Cells were first treated for 24, 48, and 72 h, with increasing concentrations (0.5–50 µM) of the compound. In a subsequent series of the experiments, cells were treated for 24, 48, and 72 h with increasing concentration of BPPB in the range of 0.1–2 µM. […] Cell cultures were carefully monitored before and during the experiments to ensure optimal cell density.
Cell viability was determined by using the CellTiter 96® AQueous One Solution Cell Proliferation Assay (Promega, Madison, WI, USA), as previously described. Briefly, cells (10,000 cells/well) were seeded into 96-well plates (Corning Incorporated, Corning, NY, USA) and then treated. Next, cells were incubated with 20 µL of CellTiter, and the absorbance at 490 nm was recorded using a microplate reader (EL-808, BIO-TEK Instruments Inc., Winooski, VT, USA). IC50 was evaluated by GraphPad Prism 5.4.2 Software (GraphPad Software, Boston, MA, USA).
Results are expressed as the means ± S.D. of at least four independent experiments in which six different wells were analyzed every time for each experimental condition. The statistical significance of differences was determined by two-way analysis of variances (ANOVA) followed by Tukey’s multicomparison test using GraphPad Prism 8.0 (GraphPad Software v8.0, San Diego, CA, USA); p < 0.05 was considered statistically significant. Asterisks or other indicators (see Figures captions) indicate the following p-value ranges: p > 0.05 no symbols, * = p < 0.05, ** = p < 0.01, *** = p < 0.001, **** = p < 0.0001.

c1ccc([P+](CCCCCCCCCCCC[P+](c2ccccc2)(c2ccccc2)c2ccccc2)(c2ccccc2)c2ccccc2)cc1 [BPPB, 1,1-(1,12-dodecanediyl)bis [1,1, 1]-triphenylphosphonium di-bromide]
viability at 24 h ([1]; HepG2 cells, 8.5 µM and 4.3 µM, which value belongs to which concentration is not stated, read-out: Cell viability HepG2 (MTT)): 64.5%
selectivity ratio at 24 h ([1]; read-out: Selectivity index (SI) = IC50 HepG2 / IC50 HTLA-ER): 8.7
Selectivity index (SI) = IC50 HepG2 / IC50 HTLA-230 (HepG2 cells; 24 h): 40.6 and 40.63
Selectivity index (SI) = IC50 HepG2 / IC50 HTLA-ER (HepG2 cells; 24 h): 8.68
IC50 (HepG2 cells; 24 h): 9.64 ± 1.31 µM
IC50 (HepG2 cells; Homo sapiens, HepG2, 24 h): 9.6 µM
Concentrations with a safety profile toward HepG2 (HepG2 cells; MTT test, 24 h): ≤ 8.5 µM
LDH release Cos-7 (optical density) (Cos-7 cells [2]; 4.3 µM): 0.30 OD
LDH release Cos-7 (optical density) (Cos-7 cells [2]; 8.5 µM): 0.80 OD
Concentrations with a safety profile toward Cos-7 (Cos-7 cells [2]; LDH test): ≤ 4.3 µM
IC50 COS-7 cell (Cos-7 cells [3]): 5.76 ± 0.95 µg/mL
Cell viability HTLA-ER (HTLA-ER cells; 0.5 µM, 24 h, series 0.5–50 µM): not significantly different from that of controls
Fold lower IC50 on HTLA-ER than that of ETO (HTLA-ER cells; 24 h, ETO IC50 592 µM from ref 58): 538 fold
Cell viability HTLA-ER (HTLA-ER cells; 24 h, concentration at which hemolysis was inexistent (concentration not stated)): 14.3%
IC50 (HTLA-ER cells; 24 h exposure, refined concentration range 0.1–2 µM): 1.11 µM
IC50 (HTLA-ER cells; 48 h exposure, refined concentration range 0.1–2 µM): 0.93 ± 0.0956 µM
IC50 (HTLA-ER cells; 72 h exposure, refined concentration range 0.1–2 µM): 0.833 ± 0.0685 µM
IC50 (HTLA-ER cells; Homo sapiens, 24 h, 24 h exposure, concentration range 0.5–50 µM): 1.85 ± 0.392 µM
IC50 (HTLA-ER cells; Homo sapiens, 24 h, 24 h exposure, refined concentration range 0.1–2 µM): 1.1 µM
IC50 (HTLA-ER cells; Homo sapiens, 48 h, 48 h exposure, concentration range 0.5–50 µM): 0.732 ± 0.159 µM
IC50 (HTLA-ER cells; Homo sapiens, 48 h, 48 h exposure, refined concentration range 0.1–2 µM): 0.9 µM
IC50 (HTLA-ER cells; Homo sapiens, 72 h, 72 h exposure, concentration range 0.5–50 µM): 0.892 ± 0.167 µM
IC50 (HTLA-ER cells; Homo sapiens, 72 h, 72 h exposure, refined concentration range 0.1–2 µM): 0.8 µM
IC50 (HTLA-ER cells; Homo sapiens, 72 h, over 24, 48, 72 h, range 0.1–2 µM): 0.8 to 1.1 µM
viability at 0.5 µM (HTLA-ER cells; Homo sapiens, 0.5 µM, 48 h, series 0.5–50 µM): 54.1%
viability at 0.5 µM (HTLA-ER cells; Homo sapiens, 0.5 µM, 72 h, series 0.5–50 µM): 62%
Cell viability HTLA-ER (plateau) (HTLA-ER cells; concentrations above 5–10 µM up to 50 µM, all exposure times): 7–8%
